In patent US9604975B2, “Indolyl-pyridone derivatives having checkpoint kinase 1 inhibitory activity” (Vernalis (R&D) Ltd., priority 2009, dated 2017):

Biological target: T1, CHK1 (Homo sapiens, UniProt O14757)
T1 construct: His; purchased Invitrogen
T1 sequence (O14757 1-476): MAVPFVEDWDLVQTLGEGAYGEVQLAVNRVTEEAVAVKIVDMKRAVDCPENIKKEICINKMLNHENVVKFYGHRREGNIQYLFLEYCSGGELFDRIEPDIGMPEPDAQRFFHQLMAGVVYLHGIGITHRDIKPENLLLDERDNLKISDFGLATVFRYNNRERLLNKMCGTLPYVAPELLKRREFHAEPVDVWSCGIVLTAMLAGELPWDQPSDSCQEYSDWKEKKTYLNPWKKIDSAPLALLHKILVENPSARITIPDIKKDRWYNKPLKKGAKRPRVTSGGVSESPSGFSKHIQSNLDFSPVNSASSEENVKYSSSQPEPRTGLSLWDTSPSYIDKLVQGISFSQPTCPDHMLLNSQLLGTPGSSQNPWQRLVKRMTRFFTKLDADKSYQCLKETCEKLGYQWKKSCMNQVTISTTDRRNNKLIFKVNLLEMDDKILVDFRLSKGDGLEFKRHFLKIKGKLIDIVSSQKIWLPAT
Experiment: CHK1 Enzyme Assay (phosphorylation of Chktide peptide, 33P-ATP filter assay)
Assay type: biochemical
Conditions: 12.5 nM His-CHK1, 0.01 mM ATP, 40 minutes at 30° C.; read-out: CHK1 Enzyme Activity (IC50 range)
Outline: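 His-CHK1 (12.5 nM) phosphorylating 14.8 μM Chktide with 0.01 mM ATP plus 33P-γ-ATP, in 50 mM Hepes-NaOH pH 7.5 with 0.1 mg/mL BSA. Incubated with inhibitor for 40 min at 30 °C. Stopped with phosphoric acid; phosphopeptide captured on filter and counted by scintillation.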

Row | Structure (SMILES) | IC50 [nM]
1 | Cc1[nH]c(=O)c(-c2cc3ccccc3[nH]2)cc1NC(=O)c1cnn(Cc2cccc(F)c2)c1 [Example 30, 1-(3-Fluoro-benzyl)-1H-pyrazole-4-carboxylic acid [5-(1H-indol-2-yl)-2-methyl-6-oxo-1,6-dihydro-pyridin-3-yl]-amide] | 100 to 500
2 | CN(C)[C@@H]1CCN(Cc2ccc3[nH]c(-c4cc(NC(=O)c5cnn(Cc6ccccc6)c5)c[nH]c4=O)cc3c2)C1 [Example 172, 1-Benzyl-1H-pyrazole-4-carboxylic acid {5-[5-((R)-3-dimethylamino-pyrrolidin-1-ylmethyl)-1H-indol-2-yl]-6-oxo-1,6-dihydro-pyridin-3-yl}-amide] | < 100
3 | CC1CN(CCOc2ccc3[nH]c(-c4cc(NC(=O)c5cnn(Cc6ccccc6)c5)c[nH]c4=O)cc3c2)CC(C)O1 (stereo not drawn) [Example 147, 1-Benzyl-1H-pyrazole-4-carboxylic acid (5-{5-[2-(2,6-dimethyl-morpholin-4-yl)-ethoxy]-1H-indol-2-yl}-6oxo-1,6-dihydro-pyridin-3-yl)-amide] | < 100
4 | Cc1[nH]c(=O)c(-c2cc3ccccc3[nH]2)cc1C(=O)Nc1cnn(Cc2ccccc2)c1 [Example 17, 5-(1H-Indol-2-yl)-2-methyl-6-oxo-1,6-dihydro-pyridine-3-carboxylic acid (1-benzyl-1H-pyrazol-4-yl)-amide] | 500 to 1500
5 | N#Cc1ccc(Cn2cc(NC(=O)c3c[nH]c(=O)c(-c4cc5ccccc5[nH]4)c3)cn2)cc1 [Example 7, 5-(1H-Indol-2-yl)-6-oxo-1,6-dihydro-pyridine-3-carboxylic acid [1-(4-cyano-benzyl)-1H-pyrazol-4-yl]-amide] | 500 to 1500
6 | CS(=O)(=O)CCNCc1ccc2[nH]c(-c3cc(NC(=O)c4cnn(Cc5ccccc5)c4)c[nH]c3=O)cc2c1 [Example 68] | < 100
7 | C[C@@H]1CN(Cc2ccc3[nH]c(-c4cc(NC(=O)c5cnn(Cc6ccc(F)cc6)c5)c[nH]c4=O)cc3c2)C[C@H](C)O1 [Example 76, 1-(4-Fluoro-benzyl)-1H-pyrazole-4-carboxylic acid {5-[5-(cis-2,6-dimethyl-morpholin-4-ylmethyl)-1H-indol-2-yl]-6-oxo-1,6-dihydro-pyridin-3-yl}-amide] | < 100
8 | O=C(Nc1c[nH]c(=O)c(-c2cc3cc(CN4CCN(CCO)CC4)ccc3[nH]2)c1)c1cnn(Cc2ccccc2)c1 [Example 65, 1-Benzyl-1H-pyrazole-4-carboxylic acid (5-{5-[4-(2-hydroxy-ethyl)-piperazin-1-ylmethyl]-1H-indol-2-yl}-6-oxo-1,6-dihydro-pyridin-3-yl)-amide] | < 100
9 | C[C@@H](c1ccccc1)n1cc(C(=O)Nc2c[nH]c(=O)c(-c3cc4cc(CN5CCCCC5)ccc4[nH]3)c2)cn1 [Example 162, 1-((S)-1-Phenyl-ethyl)-1H-pyrazole-4carboxylic acid [6-oxo-5-(5-piperidin-1-ylmethyl-1H-indol-2-yl)-1,6-dihydro-pyridin-3-yl]-amide] | < 100
10 | O=C(Nc1c[nH]c(=O)c(-c2cc3ccccc3[nH]2)c1)c1cnn(Cc2cccc(Cl)c2)c1 [Example 27, 1-(3-Chloro-benzyl)-1H-pyrazole-4-carboxylic acid [5-(1H-indol-2-yl)-6-oxo-1,6-dihydro-pyridin-3-yl]-amide] | < 100
11 | CCc1cccc(Cn2cc(C(=O)Nc3c[nH]c(=O)c(-c4cc5cc(OCCCN(CC)CC)ccc5[nH]4)c3)cn2)c1 [Example 136, 1-(3-Ethyl-benzyl)-1H-pyrazole-4-carboxylic acid {5-[5-(3-diethylamino-propoxy)-1H-indol-2-yl]-6-oxo-1,6-dihydro-pyridin-3-yl}-amide] | < 100

Further lines, results first:

Row | IC50 [nM] | Structure (SMILES)
12 | < 100 | CC(C)c1ccc(Cn2cc(C(=O)Nc3c[nH]c(=O)c(-c4cc5cc(OCCCN6CCCCC6)ccc5[nH]4)c3)cn2)cc1 [Example 150, 1-(4-Isopropylbenzyl)-1H-pyrazole-4-carboxylic acid-{6-oxo-5-[5-(3-piperidin-1-ylpropoxy)-1H-indol-2-yl]-1,6-dihydropyridin-3-yl}-amide]
13 | < 100 | C[C@@H]1CN(Cc2ccc3[nH]c(-c4cc(NC(=O)c5cnn([C@@H](C)c6ccccc6)c5)c[nH]c4=O)cc3c2)C[C@H](C)O1 [Example 163, 1-((S)-1-Phenyl-ethyl)-1H-pyrazole-4-carboxylic acid {5-[5-(cis-2,6-dimethyl-morpholin-4-ylmethyl)-1H-indol-2-yl]-6-oxo-1,6-dihydro-pyridin-3-yl}-amide]
14 | < 100 | O=C(Nc1c[nH]c(=O)c(-c2cc3cc(CN4CCC(O)CC4)ccc3[nH]2)c1)c1cnn(Cc2ccc(Cl)cc2)c1 [Example 48, 1-(4-Chloro-benzyl)-1H-pyrazole-4-carboxylic acid {5-[5-(4-hydroxy-piperidin-1-ylmethyl)-1H-indol-2-yl]-6-oxo-1,6-dihydro-pyridin-3-yl}-amide]
15 | < 100 | O=C(Nc1c[nH]c(=O)c(-c2cc3ccccc3[nH]2)c1)c1cnn(Cc2ccc(F)nc2)c1 [Example 111, 1-(6-Fluoro-pyridin-3-ylmethyl)-1H-pyrazole-4-carboxylic acid [5-(1H-indol-2-yl)-6-oxo-1,6-dihydro-pyridin-3-yl]-amide]
16 | < 100 | O=C(Nc1c[nH]c(=O)c(-c2cc3cc(CN4CCCC4)ccc3[nH]2)c1)c1cnn(Cc2ccc(Cl)cc2)c1 [Example 55, 1-(4-Chloro-benzyl)-1H-pyrazole-4-carboxylic acid [6-oxo-5-(5-pyrrolidin-1-ylmethyl-1H-indol-2-yl)-1,6-dihydro-pyridin-3-yl]-amide]
17 | < 100 | Cc1ccc(Cn2cc(C(=O)Nc3c[nH]c(=O)c(-c4cc5cc(OCCCN6CCCCC6)ccc5[nH]4)c3)cn2)cc1 [Example 119, 1-(4-Methyl-benzyl)-1H-pyrazole-4-carboxylic acid {6-oxo-5-[5-(3-piperidin-1-yl-propoxy)-1H-indol-2-yl]-1,6-dihydro-pyridin-3-yl}-amide]
18 | < 100 | O=C(Nc1c[nH]c(=O)c(-c2cc3cc(CNCCO)ccc3[nH]2)c1)c1cnn(Cc2ccccc2)c1 [Example 61]
19 | < 100 | CCc1cccc(Cn2cc(C(=O)Nc3c[nH]c(=O)c(-c4cc5cc(OCCN6CC(C)OC(C)C6)ccc5[nH]4)c3)cn2)c1 (stereo not drawn) [Example 138, 1-(3-Ethyl-benzyl)-1H-pyrazole-4-carboxylic acid (5-{5-[2-(2,6-dimethyl-morpholin-4-yl)-ethoxy]1H-indol-2-yl}-6-oxo-1,6-dihydro-pyridin-3-yl)-amide]
20 | < 100 | Cc1ccc(Cn2cc(C(=O)Nc3c[nH]c(=O)c(-c4cc5cc(OCCCN(C)C)ccc5[nH]4)c3)cn2)cc1 [Example 122, 1-(4-Methyl-benzyl)-1H-pyrazole-4-carboxylic acid {5-[5-(3-dimethylamino-propoxy)-1H-indol-2-yl]-6-oxo-1,6-dihydro-pyridin-3-yl}-amide]
21 | < 100 | O=C(Nc1c[nH]c(=O)c(-c2cc3cc(OCCN4CCCC4)ccc3[nH]2)c1)c1cnn(Cc2ccccc2)c1 [Example 144, 1-Benzyl-1H-pyrazole-4carboxylic acid {6-oxo-5-[5-(2-pyrrolidin-1-yl-ethoxy)-1H-indol-2-yl]-1,6-dihydro-pyridin-3-yl}-amide]
22 | < 100 | CN(C)Cc1cccc2[nH]c(-c3cc(NC(=O)c4cnn(Cc5ccccc5)c4)c[nH]c3=O)cc12 [Example 106, 1-Benzyl-1H-pyrazole-4-carboxylic acid [5-(4-dimethylaminomethyl-1H-indol-2-yl)-6-oxo-1,6-dihydro-pyridin-3-yl]-amide]
23 | < 100 | CCN(CC)CCOc1ccc2[nH]c(-c3cc(NC(=O)c4cnn(Cc5ccc(C)cc5)c4)c[nH]c3=O)cc2c1 [Example 125, 1-(4-Methyl-benzyl)-1H-pyrazole-4-carboxylic acid {5-[5-(2-diethylamino-ethoxy)-1H-indol-2-yl]-6-oxo-1,6-dihydro-pyridin-3-yl}-amide]
24 | < 100 | O=C(Nc1cnn(Cc2ccc(F)c(F)c2)c1)c1c[nH]c(=O)c(-c2cc3cc(CN4CCOCC4)ccc3[nH]2)c1 [Example 99, 5-(5-Morpholin-4-ylmethyl-1H-indol-2-yl)-6-oxo-1,6-dihydro-pyridine-3-carboxylic acid [1-(3,4-difluoro-benzyl)-1H-pyrazol-4-yl]-amide]
25 | < 100 | O=C(Nc1c[nH]c(=O)c(-c2cc3ccccc3[nH]2)c1)c1cnn(Cc2ccc(F)cc2)c1 [Example 21, 1-(4-Fluoro-benzyl)-1H-pyrazole-4-carboxylic acid [5-(1H-indol-2-yl)-6-oxo-1,6-dihydro-pyridin-3-yl]-amide]
26 | < 100 | CCc1cccc(Cn2cc(C(=O)Nc3c[nH]c(=O)c(-c4cc5cc(OCCN6CCCCC6)ccc5[nH]4)c3)cn2)c1 [Example 135, 1-(3-Ethyl-benzyl)-1H-pyrazole-4-carboxylic acid {6-oxo-5-[5-(2-piperidin-1-yl-ethoxy)-1H-indol-2-yl]-1,6-dihydro-pyridin-3-yl}-amide]
27 | < 100 | Cc1ccc(Cn2cc(C(=O)Nc3c[nH]c(=O)c(-c4cc5cc(OCC(C)(C)CN(C)C)ccc5[nH]4)c3)cn2)cc1 [Example 137, 1-(4-Methyl-benzyl)-1H-pyrazole-4-carboxylic acid {5-[5-(3-dimethylamino-2,2-dimethyl-propoxy)-1H-indol-2-yl]-6-oxo-1,6-dihydro-pyridin-3-yl}-amide]
